Measurements from US20170081383A1, “MELANOCORTIN ANALOGS HAVING ENHANCED ACTIVITY AND TRANSPORT” (Tensive Controls Inc., priority 2012, published 2017).
“Also recorded” adds a separate entry of the source. Positions of bridges follow the written chain, without caps; N, C: chain ends. Non-standard residues stand in square brackets, D forms with d. Residues, ends and D or L forms follow the SMILES beside them. No end group written: not given here. β2Val = β2-Val (beta2-Val), beta-amino acid; d2Nal = N[C@H](Cc1ccc2ccccc2c1)C(=O)O; β3hP = O=C(O)C[C@@H]1CCCN1; Nle = CCCC[C@H](N)C(=O)O

Columns and labels:
[1] = tested on: LPS-induced cachexia in rats; test: Lipopolysaccharide (LPS)-induced cachexia assay; assay type: in vivo, rat; settings: for food intake, 24 hours after LPS challenge / body weight (percent of pre-LPS baseline), 24 hours after LPS challenge: 0.2 mg/kg intraperitoneally; for food intake, 24 hours after LPS challenge: FIG. 8A; for body weight (percent of pre-LPS baseline), 24 hours after LPS challenge: FIG. 8B; for anti-cachectic activity after ICV (IVt) administration (in words): intracerebroventricular administration; for peripheral (IP) anti-cachexia activity, feeding (in words): peripheral / intraperitoneal administration after LPS
Description: The LPS model uses rats were maintained on a 12 h light/dark schedule with ad libitum access to food and water. Animals were handled daily for a minimum of three consecutive days to decrease non-specific handling stress. On the day of the experiment, individually housed animals received intraperitoneal injections of LPS dissolved in 0.5% low-endotoxin BSA, 0.9% saline or 0.5% BSA in 0.9% saline alone, and were returned to their home cage. The drug or control was administered (ICV, IP, or PO, depending on the type of study) 1-hour after LPS injection.
In the experiments described herein, a series of melanocortin receptor antagonist peptides were examined in a bacterial endotoxin inducing cachexia assay. For this assay, a rat is challenged with a single peripheral injection of lipopolysaccharide (LPS). LPS is a heat-stable lipo-polysaccharide, the major component of the outer membrane (capsule) of gram negative bacteria. In non-capsulated strains, it appears as a cell surface […]. LPS produces a strong immune response, including secretion of the proinflammatory cytokines Tumor Necrosis Factor α (TNFα) and interleukin-1 (IL-1). Proinflammatory cytokines are known factors that induce cachexia.
Rats are maintained on a 12-hour light/dark cycle. Animals are handled daily for a minimum of 5 consecutive days to acclimate them to the handling required for the experiment. […] On the day of the experiment, individually housed animals receive intraperitoneal (IP) injections of LPS dissolved in 0.5% low-endotoxin BSA, 0.9% saline or 0.5% BSA in 0.9% saline alone, and returned in their home cage. Melanocortin receptor antagonist peptides were administered (IP or by gavage, depending on the type of study) one hour after the LPS injection. The extent of cachexia is measured by the reduction in food intake, measured every two hours. The cachexia typically lasts only a single day. However, rats lose up to 5% of their body weight during a 12-hour light cycle, making up this loss plus food needed for normal growth during the 12-hour dark cycle. Thus, failure to eat appropriately during a single dark cycle is determinable from the animal's weight and any changes thereof.
A series of melanocortin receptor antagonist peptides were examined in a bacterial toxin inducing cachexia assay. In this assay, a rat was challenged with a single peripheral injection of lipopolysaccharide (LPS), a bacterial toxin that rapidly induces acute cachexia. The extent of cachexia was measured as a reduction in food intake, measured every two hours. The cachexia typically lasts only a single day.

[2] = TCMCB07 in rat plasma and cerebrospinal fluid after IV administration (HPLC fluorescence, mass spectrometry); assay type: in vivo
Description: Urethane-Anesthetized Rats Had Polyethylene (PE)-Tubing Cannulas Placed in their Femoral artery and vein. Each rat was then placed in a small animal stereotaxic apparatus, their head fixed in the lateral plane with ear bars, and their head placed in a 45-50° downward angle by placing their nose below an adjustable tooth bar. This position placed the animal's cistern magna at the highest vertical position of its body. The dural covering of the dorsal cistern magna was exposed.
A stainless steel cannula, with one end attached to PE-tubing, was placed in a stereotaxic tower cannula holder (open end down). The free end of the PE-tubing was attached to a 100 μL gas-tight Hamilton syringe with a 28-gauge needle. The cannula was adjusted to a position that approximated the middle of the exposed cistern magna, and the cannula lowered until it touched the dura mater. […] The dura has a degree of flexibility such that the cannula can depress it before it pierces it. After it was pierced, the dural rises to its original position, placing the cannula tip within the cistern magna space. The position of the cannula tip was again noted on the vertical axis of the tower. Typically, the cannula tip was 1.6-1.8 mm below the original dura-touch position. The cannula tip was then adjusted, if needed, to 1.8 mm below the dura, and the cannula sealed to the dura using skin glue. Samples of cisternal cerebrospinal (CSF) fluid were removed through cannula and PE-tubing by slowly drawing on the Hamilton syringe.
For the experimental procedure, baseline samples of blood and CSF were taken (“0” time points), followed by the IV administration of 750 nmol/kg TCMCB07. Samples of CSF (50 μL) and blood (1 mL) were collected at the following time points: 0, 5, 15, 30, and 90 minutes. […] Both CSF and plasma were stored at −80° C. until analyzed by (HPLC) with spectrofluoremetric monitoring at 230 nm excitation and […] emission (the fluorescence maximum for the Nal residue). […]

Lewis sarcoma rat = test: Reversal of cachexia-induced lethargy; assay type: in vivo; settings: once-daily peripheral dosing for 48 hours (2 IP doses), irrespective of tumor load
Description: In animals and humans, cachexia produces “lethargy,” i.e., the aversion to activity. Grossberg et al., J. Neurosci. 31(31): 11376-11386. […] This therapeutic effect is dependent on a stabilized melanocortin antagonist C-terminal extension. Video recordings characterized control animal behavior as neo-exploratory movement about the cage, i.e., repeated “sniffing” the air to presumably sample odors (e.g., neighboring animals), grooming, and intermittent bouts of eating and drinking. Caldecott-Hazard et al., J. Neurosci. 8(6): 1951-1961 (1988).
The animal typically remains in one position for an extended period of time (>1 minute). Occasionally it will change position, assuming the new position for an extended period. The rats show no grooming behavior, evident in the appearance of their coat and eyes.

cachexia models = settings: Marks et al., Cancer Res. 2001; cited from earlier work
[3] = Sutton et al., Peptides 2008; cited from earlier work
[4] = tested on: urethane-anesthetized rats; test: Cardiovascular activity of melanocortin peptides (MAP, heart rate, ECG); settings: 200 nmol, n = 5
Description: These studies were performed in urethane-anesthetized rats, since anesthesia is required for six-lead ECG monitoring. […] Initial selection of doses was guided by FDA exploratory IND studies with a recommendation for at least a 100-fold excess of the human dose.

Compound: CCCC[C@H](NC(C)=O)C(=O)N[C@H]1CC(=O)NCCCC[C@@H](C(=O)N[C@@H](C(=O)N2CCC[C@@H]2C(N)=O)C(C)C)NC(=O)[C@H](Cc2c[nH]c3ccccc23)NC(=O)[C@H](CCCN=C(N)N)NC(=O)[C@@H](Cc2ccc3ccccc3c2)NC(=O)[C@@H]2CCCN2C1=O [TCMCB07, Ac-Nle-c[Asp-Pro-D-Nal(2′)-Arg-Trp-Lys]-D-Val-D-Pro-NH2] (Ac-[Nle]DP[d2Nal]RWK[dV][dP]-NH2; lactam 2-7)
- blood-brain barrier transport (concluded from peripheral vs ICV activity) ([1]; LPS model): both gastrointestinal and blood-brain barrier transport
- proposed metabolite peak (retention time 12.9 minutes) in CSF ([2]; 5 and 30 minutes post IV 750 nmol/kg, peak height): peak height increases over time; also recorded: increased cerebrospinal fluid concentration
- transport through the blood-brain-barrier (physical evidence) ([2]; IV 750 nmol/kg): direct physical evidence of TCMCB07 transport through the blood-brain-barrier
- presence in CSF by mass spectrometry of HPLC effluent ([2]; after IV 750 nmol/kg, no obvious Nal-fluorescence peak): confirmed the presence of TCMCB07 in CSF

Compound: CCCC[C@H](NC(C)=O)C(=O)N[C@H]1CC(=O)NCCCC[C@@H](C(=O)N[C@@H](C(=O)N2CCC[C@@H]2C(N)=O)C(C)C)NC(=O)[C@H](Cc2c[nH]c3ccccc23)NC(=O)[C@H](CCCNC(=N)N)NC(=O)[C@@H](Cc2ccc3ccccc3c2)NC(=O)[C@@H]2CCCN2C1=O [TCMCB07, Ac-Nle-c[Asp-Pro-D-Nal(2′)-Arg-Trp-Lys]-D-Val-D-Pro-NH2] (Ac-[Nle]DP[d2Nal]RWK[dV][dP]-NH2; lactam 2-7)
- food intake, 24 hours after LPS challenge [1]: stimulated appetites
- body weight (percent of pre-LPS baseline), 24 hours after LPS challenge [1]: significantly gained weight
- peripheral (IP) LPS anti-cachectic activity relative to TCMCB02 ([1]; IP): 10 fold
- oral activity / gastrointestinal transport (in words) ([1]; gavage (intra-gastric) administration, LPS cachexia): significant enhancement of food intake
- anti-cachectic activity after ICV (IVt) administration (in words) ([1]; LPS model): maintained ICV activity
- peripheral (IP) anti-cachexia activity, feeding (in words) [1]: equivalent stimulation of feeding; also recorded: significant increase in feeding
- activity following peripheral administration relative to TCMCB02 ([1]; peripheral administration): about 10 times
- behavior of cachectic (lethargic) rats (Lewis sarcoma rat): restored “normal” behavior to rats

Compound: AGRP: endogenous melanocortin system inhibitor (agouti-related protein); naturally occurring melanocortin antagonist protein (SSRRCVRLHESCLGQQVPCCDPCATCYCRFFNAFCYCRKLGTAMNPCSRT; ends and bridges not checked; cysteine pairing not given here; UniProt O00253 83-132, looked up)
- reversal of cachexia-anorexia syndrome (cachexia models): 100%

Compound: Ac-Nle-c[Asp-Pro-D-Nal(2′)-Arg-Trp-Lys]-Pro-Val-NH2 (Ac-[Nle]DP[d2Nal]RWKPV-NH2; lactam 2-7) [PG932]
- peripheral activity [3]: active peripherally
- Duration [4]: 4 ± 3 min
- Peak Heart Rate Response (BPM) [4]: 13 ± 9 BPM
- Peak MAP Response (Δ mm Hg) [4]: 5 ± 3 mm Hg

Compound: Ac-Nle-c[Asp-Pro-D-Nal(2′)-Arg-Trp-Lys]-β^3-Pro-β^2-Val-NH2 (Ac-[Nle]DP[d2Nal]RWK[β3hP][β2Val]-NH2; lactam 2-7) [TCMCB05]
- food intake, 24 hours after LPS challenge [1]: stimulated appetites
- body weight (percent of pre-LPS baseline), 24 hours after LPS challenge [1]: significantly gained weight
- molar activity relative to TCMCB02 ([1]; ICV administration, LPS-induced cachexia): 10 fold
- anti-cachectic activity after ICV (IVt) administration (in words) ([1]; LPS model): molar activity equivalent to TCMCB02
- peripheral (IP) anti-cachexia activity, feeding (in words) [1]: had IP anti-cachexia activity; also recorded: had peripheral anti-cachexia activity; also recorded: Only TCMCB07 produced a significant increase in feeding
- behavior of cachectic (lethargic) rats (Lewis sarcoma rat): restored “normal” behavior to rats
